“Also recorded” adds a separate entry of the source. Like-named read-outs stand apart in the source and are kept apart here.
Experiments:
[1] = test system: T. cruzi Tulahuen CL2 (benznidazole-sensitive); assay: Antitrypanosomal activity (Chagas), β-galactosidase readout on MRC-5 cells; format: cell-based, Trypanosoma cruzi; details: for IC50: Trypanosoma cruzi, MRC5, 168 h, read-out: T. cruzi IC50
Method: (§1) The integrated panel of microbial screens and standard screening methodologies were adopted as previously described. All assays were performed in triplicate, at the Laboratory of Microbiology, Parasitology and Hygiene at the University of Antwerp, Belgium. […] The selectivity antiprotozoal potential was assessed by simultaneous evaluation of cytotoxicity on a fibroblast (MRC-5) cell line.
(§2) About 1.5 × 10^4 trypomastigotes/well were added to each well and parasite growth was assessed after 72 h at 37 °C by adding resazurin [30]. […] The color reaction was read at 540 nm after 4 h and absorbance values were expressed as a percentage of the blank controls.

[2] = test system: Chloroquine-resistant P. falciparum 2/K 1-strain (erythrocytic schizonts); assay: Antiplasmodial activity (Malstat method); format: cell-based, Plasmodium falciparum; details: for IC50: Plasmodium falciparum, 72 h, read-out: P. falciparum IC50
Method: as §1
Chloroquine-resistant P. falciparum 2/K 1-strain was cultured in human erythrocytes O^+ at 37 °C under a low oxygen atmosphere (3% O2, 4% CO2, and 93% N2) in RPMI-1640, supplemented with 10% human serum. Infected human red blood cells (200 μL, 1% parasitaemia, 2% haematocrit) were added to each well and incubated for 72 h. After incubation, test plates were frozen at −20 °C. Parasite multiplication was measured by the Malstat method.

[3] = test system: L.infantum MHOM/MA(BE)/67 amastigotes; assay: Antileishmanial activity, intracellular amastigotes in primary peritoneal mouse macrophages; format: cell-based, Leishmania infantum; details: for IC50: Leishmania infantum, Macrophage, 120 h, read-out: L. infantum IC50
Method: as §1
L.infantum MHOM/MA(BE)/67 amastigotes were collected from the spleen of an infected donor hamster and used to infect primary peritoneal mouse macrophages. To determine in vitro antileishmanial activity, 3 × 10^4 macrophages were seeded in each well of a 96-well plate. After 2 days outgrowth, 5 × 10^5 amastigotes/well were added and incubated for 2 h at 37 °C. Pre-diluted plant extracts were subsequently added and the plates were further incubated for 5 days at 37 °C and 5% CO2. Parasite burdens (mean number of amastigotes/macrophage) were microscopically assessed after Giemsa staining, and expressed as a percentage of the blank controls without plant extract.

[4] = test system: Trypanosoma brucei Squib-427 strain (suramin-sensitive) trypomastigotes; assay: Antitrypanosomal activity, resazurin readout; format: cell-based; details: for IC50: Trypanosoma brucei, 72 h, read-out: T. brucei IC50; for T. brucei SI (selectivity index): versus MRC-5 cytotoxicity
Method: as §1, §2

[5] = Cytotoxicity assay (resazurin); format: cell-based; details: human, MRC-5 cells
Method: as §1
For the assay, 10^4 MRC-5 cells/well were seeded onto the test plates containing the pre-diluted sample and incubated at 37 °C and 5% CO2 for 72 h. Cell viability was assessed fluorimetrically after 4 h of addition of resazurin. Fluorescence was measured (excitation 550 nm, emission 590 nm) and the results were expressed as % reduction in cell viability compared to control.

[6] = test system: all protozoa species (P. falciparum, L. infantum, T. cruzi, T. brucei); assay: Antiprotozoal activity, statement pooled over all protozoa species tested; format: cell-based; details: for IC50: pooled over P. falciparum, L. infantum, T. cruzi, T. brucei, read-out: IC50 against all protozoa species
Method: as §1

[7] = Tulahuen CL2 on MRC-5 cells, 7 days
[8] = chloroquine-resistant 2/K 1-strain
[9] = intracellular amastigotes in mouse macrophages, 5 days
[10] = MRC-5 SV2 cells (fibroblast cell line)

| SMILES | IC50 [1, 7] | IC50 [2, 8] | IC50 [3, 9] | IC50 ([4]; Squib-427 trypomastigotes) | IC50 at 72 h [5, 10] | IC50 [6] | further results |
| --- | --- | --- | --- | --- | --- | --- | --- |
| O=C(Cn1ccnc1[N+](=O)[O-])NCc1ccccc1 [Benznidazole, reference compound] | 2.5 ± 0.6 µM | – | – | – | – | – | – |
| CCN(CC)CCCC(C)Nc1ccnc2cc(Cl)ccc12 (stereo not shown) [Chloroquine, reference compound] | – | – | – | – | – | – | IC50 [2]: 0.04 ± 0.01 µM |
| CC(C)c1ccc2c(c1)CC[C@H]1C(C)(C)CCC[C@]21C [Compound (1), dehydroabietane] | > 237 µM | 124 ± 4.7 µM | > 237 µM | > 237 µM | > 237 µM | > 100 µM | L. infantum SI (selectivity index) ([3]; versus MRC-5 cytotoxicity): > 1; T. cruzi SI (selectivity index) ([1]; versus MRC-5 cytotoxicity): >1; T. brucei SI (selectivity index) [4]: >1; antiprotozoal activity (in words) ([6]; overall verdict over all protozoa tested): no activity against all protozoal strains; also recorded: no antiprotozoal potential |
| CC(C)C1=CC2=C(O)C(O)=C3C(C)(C)CCC[C@]3(C)C2=C(O)C1=O [Compound (2), 5,6-didehydro-7-hydroxy-taxodone] | – | – | – | 1.9 ± 0.4 µM | 96.2 ± 5.8 µM | – | IC50 [2]: 9.2 ± 0.6 µM; IC50 [3]: 25.7 ± 1.5 µM; IC50 ([1]; TULAHUEN): 25.7 ± 1.5 µM |
| CC(C)C1=CC2=CC(=O)[C@H]3C(C)(C)CCC[C@]3(C)C2=C(O)C1=O [Compound (3), taxodione] | 25.7 ± 2.3 µM | 8.5 ± 0.7 µM | 25.7 ± 2.3 µM | 9.8 ± 0.7 µM | 22.6 ± 1.3 µM | 6 to 31.6 µM | P. falciparum SI (selectivity index) ([2]; versus MRC-5 cytotoxicity): 2.6; T. brucei SI (selectivity index) [4]: 2.3 |
| CC(C)c1cc2c(c(O)c1O)C13CCCC(C)(C)C1CC2OC3 (stereo not shown) [Compound (4), 20-deoxocarnosol] | 25.6 ± 1.2 µM | 11.1 ± 0.6 µM | 25.6 ± 1.2 µM | 6 ± 0.8 µM | – | 6 to 31.6 µM | IC50 at 72 h [5]: 6 ± 0.3 µM |
| CC(C)c1cc2c(c(O)c1O)C13CCCC(C)(C)C1C(O)C2OC3 (stereo not drawn) [Compound (5), 6α,11,12,-trihydroxy-7β,20-epoxy-8,11,13-abietatriene] | 24.4 ± 3.2 µM | 31.6 ± 1.9 µM | 24.4 ± 3.2 µM | 15.9 ± 1.4 µM | 5.7 ± 0.9 µM | 6 to 31.6 µM | – |
| Nc1nc(N)nc(Nc2ccc([As]3SCC(CO)S3)cc2)n1 (stereo not shown) [Melarsoprol, reference compound] | – | – | – | – | – | – | IC50 [4]: 0.005 ± 0.001 µM |
| CCCCCCCCCCCCCCCCOP(=O)([O-])OCC[N+](C)(C)C [Miltefosine, reference compound] | – | – | 2.4 ± 0.8 µM | – | – | – | – |
| CC/C(=C(\c1ccccc1)c1ccc(OCCN(C)C)cc1)c1ccccc1 [Tamoxifen, reference compound] | – | – | – | – | 10.5 ± 2.5 µM | – | – |
